Source: the OligoGym collection
Oligonucleotides are written 5' to 3', each unit as a sugar letter and its base; * is a phosphorothioate linkage, no mark a phosphodiester; rarer units and linkages stand in square brackets, end groups in braces. Plain capitals give the bases only. d = 2'-deoxy (DNA); r = 2'-OH (RNA)

target: UBE2J1; experiment: reporter assay of Huesken 2005; details: siRNA
Further: test concentration or dose not given here.

Row | Substance | normalised inhibition (eCFP-eYFP dual reporter)
1 | sense rCrArUrCrUrCrArGrGrCrCrArUrCrArUrCrCrUdTdT / antisense rArGrGrArUrGrArUrGrGrCrCrUrGrArGrArUrGdCdT | 64.7%
2 | sense rArUrArUrArUrCrUrGrGrCrArArArCrGrArArUdTdT / antisense rArUrUrCrGrUrUrUrGrCrCrArGrArUrArUrArUdTdC | 95.9%
3 | sense rArCrArArArArGrGrArGrArGrGrGrArGrCrCrAdTdT / antisense rUrGrGrCrUrCrCrCrUrCrUrCrCrUrUrUrUrGrUdTdG | 41.7%
4 | sense rUrUrCrArCrUrArArCrUrGrArUrUrUrArCrArAdTdT / antisense rUrUrGrUrArArArUrCrArGrUrUrArGrUrGrArAdAdA | 67.5%
5 | sense rCrUrCrUrUrArUrArUrUrCrCrGrArCrGrArArUdTdT / antisense rArUrUrCrGrUrCrGrGrArArUrArUrArArGrArGdCdT | 98.8%
6 | sense rCrArArArUrArArGrCrUrUrUrArArGrGrCrArGdTdT / antisense rCrUrGrCrCrUrUrArArArGrCrUrUrArUrUrUrGdCdC | 56%
7 | sense rArUrGrGrUrCrGrArUrUrUrGrArArGrUrGrGrGdTdT / antisense rCrCrCrArCrUrUrCrArArArUrCrGrArCrCrArUdTdA | 56.3%
8 | sense rGrArGrUrArUrArArGrGrArCrArGrCrArUrUrAdTdT / antisense rUrArArUrGrCrUrGrUrCrCrUrUrArUrArCrUrCdCdA | 91.4%
9 | sense rCrArGrArArGrUrCrArArUrUrCrArUrCrUrGrGdTdT / antisense rCrCrArGrArUrGrArArUrUrGrArCrUrUrCrUrGdCdC | 60.5%
10 | sense rUrUrCrCrArGrGrGrUrGrCrUrArCrGrGrCrCrAdTdT / antisense rUrGrGrCrCrGrUrArGrCrArCrCrCrUrGrGrArAdTdG | 75.1%
11 | sense rGrArGrUrCrArGrArCrUrUrArArArCrCrArCrUdTdT / antisense rArGrUrGrGrUrUrUrArArGrUrCrUrGrArCrUrCdAdG | 88.7%
12 | sense rCrCrGrArUrUrUrUrGrArUrGrGrArGrGrArGrUdTdT / antisense rArCrUrCrCrUrCrCrArUrCrArArArArUrCrGrGdAdG | 48%
13 | sense rCrArCrCrArGrCrCrArArGrArGrArCrArArCrCdTdT / antisense rGrGrUrUrGrUrCrUrCrUrUrGrGrCrUrGrGrUrGdGdC | 55.8%
14 | sense rArGrArArGrUrCrArArUrUrCrArUrCrUrGrGrAdTdT / antisense rUrCrCrArGrArUrGrArArUrUrGrArCrUrUrCrUdGdC | 79.6%
15 | sense rGrCrArGrArArGrUrCrArArUrUrCrArUrCrUrGdTdT / antisense rCrArGrArUrGrArArUrUrGrArCrUrUrCrUrGrCdCdT | 54.4%
16 | sense rGrArGrCrArUrCrUrCrArGrGrCrCrArUrCrArUdTdT / antisense rArUrGrArUrGrGrCrCrUrGrArGrArUrGrCrUrCdAdA | 64.1%
17 | sense rArGrGrArArArGrArArGrArGrCrArCrUrUrGrCdTdT / antisense rGrCrArArGrUrGrCrUrCrUrUrCrUrUrUrCrCrUdCdA | 70.7%
18 | sense rCrUrGrArCrCrArArGrArArGrCrCrArArArGrAdTdT / antisense rUrCrUrUrUrGrGrCrUrUrCrUrUrGrGrUrCrArGdCdT | 73.1%
19 | sense rCrUrGrArCrUrUrUrGrGrCrArUrUrGrGrCrArGdTdT / antisense rCrUrGrCrCrArArUrGrCrCrArArArGrUrCrArGdGdA | 76.4%
20 | sense rUrUrGrCrCrUrUrUrArArArArUrCrUrGrGrArAdTdT / antisense rUrUrCrCrArGrArUrUrUrUrArArArGrGrCrArAdCdA | 70.5%

target: UBE2L3; experiment: reporter assay of Huesken 2005; details: siRNA

Row | Substance | normalised inhibition (eCFP-eYFP dual reporter)
21 | sense rCrArArCrCrArArArArCrCrGrArCrCrArArGrUdTdT / antisense rArCrUrUrGrGrUrCrGrGrUrUrUrUrGrGrUrUrGdCdT | 87%
22 | sense rCrArUrArGrCrArCrUrGrGrUrGrArArUrGrArCdTdT / antisense rGrUrCrArUrUrCrArCrCrArGrUrGrCrUrArUrGdAdG | 80.9%
23 | sense rGrCrUrArArUrUrUrArUrUrGrArCrUrUrGrGrCdTdT / antisense rGrCrCrArArGrUrCrArArUrArArArUrUrArGrCdTdT | 46.2%
24 | sense rCrCrGrArArGrArUrCrArCrArUrUrUrArArArAdTdT / antisense rUrUrUrUrArArArUrGrUrGrArUrCrUrUrCrGrGdTdG | 83.4%
25 | sense rCrCrArGrUrArArUrUrArGrUrGrCrCrGrArArAdTdT / antisense rUrUrUrCrGrGrCrArCrUrArArUrUrArCrUrGrGdCdA | 82.8%
26 | sense rArUrCrGrArCrGrArArArArGrGrGrGrCrArGrGdTdT / antisense rCrCrUrGrCrCrCrCrUrUrUrUrCrGrUrCrGrArUdGdT | 32%
27 | sense rArCrArUrCrGrArCrGrArArArArGrGrGrGrCrAdTdT / antisense rUrGrCrCrCrCrUrUrUrUrCrGrUrCrGrArUrGrUdTdT | 64.5%
28 | sense rCrUrCrArUrArGrCrArCrUrGrGrUrGrArArUrGdTdT / antisense rCrArUrUrCrArCrCrArGrUrGrCrUrArUrGrArGdGdG | 77.1%
29 | sense rCrGrGrGrCrUrGrArCrCrUrArGrCrUrGrArArGdTdT / antisense rCrUrUrCrArGrCrUrArGrGrUrCrArGrCrCrCrGdAdA | 61.3%
30 | sense rCrArArArArCrCrGrArCrCrArArGrUrArArUrCdTdT / antisense rGrArUrUrArCrUrUrGrGrUrCrGrGrUrUrUrUrGdGdT | 56.2%
31 | sense rCrArCrCrCrGrCrUrUrCrGrGrGrCrUrGrArCrCdTdT / antisense rGrGrUrCrArGrCrCrCrGrArArGrCrGrGrGrUrGdCdT | 60%
32 | sense rGrCrUrGrArCrCrUrArGrCrUrGrArArGrArArUdTdT / antisense rArUrUrCrUrUrCrArGrCrUrArGrGrUrCrArGrCdCdC | 70.1%
33 | sense rArGrCrCrUrGrArGrCrArCrCrCrGrCrUrUrCrGdTdT / antisense rCrGrArArGrCrGrGrGrUrGrCrUrCrArGrGrCrUdGdG | 46.3%
34 | sense rGrGrArArGrCrCrArGrCrArArCrCrArArArArCdTdT / antisense rGrUrUrUrUrGrGrUrUrGrCrUrGrGrCrUrUrCrCdAdG | 73%
35 | sense rArUrUrUrArArArArCrArArArGrArUrCrUrArUdTdT / antisense rArUrArGrArUrCrUrUrUrGrUrUrUrUrArArArUdGdT | 65.5%
36 | sense rGrUrCrUrGrUrCrUrGrCrCrArGrUrArArUrUrAdTdT / antisense rUrArArUrUrArCrUrGrGrCrArGrArCrArGrArCdCdT | 91%

Row | Substance | normalised inhibition (eCFP-eYFP dual reporter)
37 | sense rUrArUrCrArCrCrCrArArArCrArUrCrGrArCrGdTdT / antisense rCrGrUrCrGrArUrGrUrUrUrGrGrGrUrGrArUrAdGdA | 57%
38 | sense rUrGrUrCrUrGrCrCrArGrUrArArUrUrArGrUrGdTdT / antisense rCrArCrUrArArUrUrArCrUrGrGrCrArGrArCrAdGdA | 51.7%
39 | sense rCrCrGrUrArArCrArUrCrCrArGrGrUrUrGrArUdTdT / antisense rArUrCrArArCrCrUrGrGrArUrGrUrUrArCrGrGdAdA | 61.4%
40 | sense rCrCrArArGrUrArArUrCrCrArGrUrCrCrCrUrCdTdT / antisense rGrArGrGrGrArCrUrGrGrArUrUrArCrUrUrGrGdTdC | 61.4%
41 | sense rUrUrGrArCrUrUrGrGrCrArArGrGrGrCrUrUrAdTdT / antisense rUrArArGrCrCrCrUrUrGrCrCrArArGrUrCrArAdTdA | 61.9%
42 | sense rArArGrCrCrArGrCrArArCrCrArArArArCrCrGdTdT / antisense rCrGrGrUrUrUrUrGrGrUrUrGrCrUrGrGrCrUrUdCdC | 41.7%
43 | sense rUrCrCrUrGrArCrArArCrCrCrUrCrCrArUrArUdTdT / antisense rArUrArUrGrGrArGrGrGrUrUrGrUrCrArGrGrAdAdC | 69.7%
44 | sense rCrCrUrCrCrArUrArUrGrArUrArArGrGrGrArGdTdT / antisense rCrUrCrCrCrUrUrArUrCrArUrArUrGrGrArGrGdGdT | 81.2%
45 | sense rCrArGrCrCrUrGrArGrCrArCrCrCrGrCrUrUrCdTdT / antisense rGrArArGrCrGrGrGrUrGrCrUrCrArGrGrCrUrGdGdG | 37.1%
46 | sense rGrGrUrCrUrGrUrCrUrGrCrCrArGrUrArArUrUdTdT / antisense rArArUrUrArCrUrGrGrCrArGrArCrArGrArCrCdTdG | 74.3%
47 | sense rCrCrCrGrCrUrUrCrGrGrGrCrUrGrArCrCrUrAdTdT / antisense rUrArGrGrUrCrArGrCrCrCrGrArArGrCrGrGrGdTdG | 62.3%
48 | sense rUrArCrCrCrArUrUrCrArArArCrCrArCrCrGrAdTdT / antisense rUrCrGrGrUrGrGrUrUrUrGrArArUrGrGrGrUrAdCdT | 71.8%
49 | sense rArGrArUrCrUrArUrCrArCrCrCrArArArCrArUdTdT / antisense rArUrGrUrUrUrGrGrGrUrGrArUrArGrArUrCrUdTdT | 73.1%
50 | sense rUrGrArUrArArGrGrGrArGrCrCrUrUrCrArGrAdTdT / antisense rUrCrUrGrArArGrGrCrUrCrCrCrUrUrArUrCrAdTdA | 110%
51 | sense rCrArArArGrArUrCrUrArUrCrArCrCrCrArArAdTdT / antisense rUrUrUrGrGrGrUrGrArUrArGrArUrCrUrUrUrGdTdT | 82.8%
52 | sense rUrCrCrArGrGrUrUrGrArUrGrArArGrCrUrArAdTdT / antisense rUrUrArGrCrUrUrCrArUrCrArArCrCrUrGrGrAdTdG | 112%
